Source: patent publication US20060228776A1, “PINK-1 promoter” (NEUROLOGIX, INC., priority 2004, published 2006)

Columns and labels:
PTEN = assay: Western blot of p-PTEN/total PTEN ratio in toxin-treated SH-SY5Y cells; type: cell-based, human
Procedure: (§1) SH-SY5Y cells were maintained in Dulbecco's modified medium (DMEM) supplemented with 10% FBS, 100 IU/mL penicillin and […] streptomycin at 37 °C under 5% CO2. Toxins (Sigma) were freshly prepared and added to the cultures and incubated for various lengths of time.
(§2) Blots were incubated with antibodies against PTEN, Phospho-PTEN, and Caspase-3 (Cell Signaling) followed by secondary antibodies and enhanced chemiluminescent detection (Amersham Biosciences).
PTEN and phosphorylated PTEN (p-PTEN) were determined by using western blot analysis. FIG. 6C show PTEN activity was determined by comparing the ratio of p-PTEN/total PTEN. A decrease in p-PTEN/total PTEN is correlated with higher PTEN activity. Results were analyzed by Image J software and p-PTEN/total PTEN results were shown graphically. […] Substantia nigra pars compacta were dissected and harvested for western blot analysis as previously described.

[1] = system: human neuroblastoma SH-SY5Y; assay: Cell viability, CellTiter 96 Aqueous One Solution Cell Proliferation Assay; type: cell-based
Procedure: as §1
To measure cell viability and apoptosis CellTiter 96 Aqueous One Solution Cell Proliferation Assay (Promega) and propidium iodide (Sigma) were used, respectively.

Caspase-3 = assay: Western blot of Caspase-3 active metabolite in SH-SY5Y cells; type: cell-based, human; details: high (mM) doses of MPP+, 24 hrs
Procedure: as §1, §2

PINK1 promoter = PINK1 promoter analysis, Dual Glo Luciferase Assay in transfected HEK293 cells; type: cell-based, human; details: promoter alone vs no promoter (pGL2-basic) or SV40 promoter (pGL2-control); HEK293, 48 hrs; p<0.05
Procedure: HEK293 cells were transfected with PINK1pr2220 and various controls for 48 hrs. Promoter activity was determined using Dual Glo Luciferase Assay system (Promega) and normalized against renilla luciferase.
In FIG. 3(A) the results are represented as the level of firefly luciferase activity driven by the PINK1 promoter normalized against renilla luciferase activity from a second plasmid used to control for transfection variability. Each experiment was replicated in triplicate, and the entire study was replicated on at least two separate occasions. […] Co-transfection with PTEN induced PINK1 promoter activity from 65% to 5 fold in various replicate experiments compared with PINK1 alone (**p<0.05; two-tailed t-test), while a PTEN point-mutant which lacks lipid phosphatase activity (1 mPTEN) had no effect.
Data is the result of triplicate experiments analyzed relative to promoter activity of PINK1pr2220 alone (*p<0.05; two-tailed t-test).
All plasmids were kept at constant amounts and ratios, with empty plasmid replacing constructs not used for individual studies. Data is the result of triplicate experiments analyzed relative to promoter activity of PINK1pr2220 alone (*p<0.05; two-tailed t-test).

NCCc1cc(O)c(O)cc1O [6-OHDA, 6-hydroxydopamine]
p-PTEN/total PTEN ratio (PTEN; n=4): lower p-PTEN/total PTEN ratio | cell viability ([1]; 6-OHDA): reduced cell viability

C[n+]1ccc(-c2ccccc2)cc1 [MPP+]
p-PTEN/total PTEN ratio (PTEN; 24 hrs, escalating high doses of MPP+ (mM)): No change | p-PTEN/total PTEN ratio (PTEN; low dose MPP+ (100 μM), various time points): reduction | cleavage of Caspase-3 active metabolites (Caspase-3): not cleaved | cell viability ([1]; MPP+ 24 hr treatment): reduced cell viability

PINK1 promoter: 2220bp human DNA sequence upstream of the PINK1 transcriptional start site, driving firefly luciferase
PINK1 promoter activity (firefly luciferase normalized against renilla luciferase) (PINK1 promoter): significant promoter activity
